From US10124004B2, “Pyrido[3,4-d]pyrimidine derivative and pharmaceutically acceptable salt thereof” (Teijin Pharma Limited, priority 2015, dated 2018)
Read-outs that look alike come from different tables or passages of the source.

Experiments:
CDK4/cyclin D3 = biological target: T1, CDK4/cyclin D3 (Homo sapiens, UniProt P11802); test: Human CDK4/cyclin D3 inhibitory activity (QS S Assist CDK4/Cyclin D3_FP Kit, IMAP fluorescence polarization); format: biochemical
T1 construct: purchased Carna Biosciences, Inc. QS S Assist CDK4/Cyclin D3_FP Kit
How it was run: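 Percent inhibition, relative to DMSO with and without enzyme, was curve-fitted to give IC50 from polarization (ex 485, em 535 nm). The 45-min room-temperature reaction used 12.5-25 ng/well enzyme, kit ATP/substrate/metal mix, and HEPES pH 7.4 buffer with Tween20 and DTT, followed by 30-min IMAP binding in the dark.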

CDK2/cyclin A2 = biological target: T2, CDK2/cyclin A2 (Homo sapiens, UniProt P24941); test: Human CDK2/cyclin A2 inhibitory activity (QS S Assist CDK2/Cyclin A2_FP Kit, IMAP fluorescence polarization); format: biochemical
T2 construct: purchased Carna Biosciences, Inc. QS S Assist CDK2/Cyclin A2_FP Kit
How it was run: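 Kinase activity read as fluorescence polarization (485/535 nm) after phosphorylated fluorescent substrate binds IMAP reagent (30 min, RT, dark). Enzyme (2.5 ng/well) reacted 60 min at RT with ATP/substrate/metal in HEPES pH 7.4 buffer with Tween 20 and DTT; no-enzyme wells define 0% activity; IC50 by curve fit.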

[1] = Human CDK4/cyclin D3 inhibitory activity, read-out: CDK4 Activity symbol
[2] = Human CDK2/cyclin A2 inhibitory activity, read-out: CDK2 Activity symbol
[3] = 50% inhibitory concentration against CDK4/cyclin D3, given as class symbol
[4] = 50% inhibitory concentration against CDK2/cyclin A2, given as class symbol

T1 sequence (P11802 whole entry): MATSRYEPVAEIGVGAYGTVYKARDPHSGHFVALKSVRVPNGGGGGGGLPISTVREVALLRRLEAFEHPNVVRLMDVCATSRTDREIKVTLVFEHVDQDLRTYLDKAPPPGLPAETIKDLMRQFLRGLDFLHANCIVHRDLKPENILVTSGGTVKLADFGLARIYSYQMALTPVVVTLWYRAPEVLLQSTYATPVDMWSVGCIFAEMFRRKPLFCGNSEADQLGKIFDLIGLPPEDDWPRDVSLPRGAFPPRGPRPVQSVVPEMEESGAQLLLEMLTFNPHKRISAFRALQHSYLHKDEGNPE
T1 sequence (P30281 whole entry partner): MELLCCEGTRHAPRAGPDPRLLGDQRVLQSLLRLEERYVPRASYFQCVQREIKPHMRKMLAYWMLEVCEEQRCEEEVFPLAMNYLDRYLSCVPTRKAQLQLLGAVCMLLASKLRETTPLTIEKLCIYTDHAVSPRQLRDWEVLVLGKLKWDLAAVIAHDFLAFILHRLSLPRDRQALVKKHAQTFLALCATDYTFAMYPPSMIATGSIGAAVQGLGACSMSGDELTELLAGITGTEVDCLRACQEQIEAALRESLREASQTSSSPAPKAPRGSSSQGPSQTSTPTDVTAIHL

SMILES	IC50 (CDK4/cyclin D3; [1]) [nM]	IC50 (CDK2/cyclin A2; [2]) [nM]	IC50 (CDK4/cyclin D3; [3]) [nM]	IC50 (CDK2/cyclin A2; [4]) [nM]
COCC(C)(C)Nc1nc([C@@H](C)O)cc2cnc(Nc3ccc(CN4CCN(CC(F)F)CC4)cn3)nc12 [Compound 299]	10 to 100	≥ 100		
CC(C)Nc1nc(C(F)F)cc2cnc(Nc3ccc(N4CCC(C(=O)O)CC4)cn3)nc12 [Compound 90]	10 to 100	10 to 100		
O=C(O)C1CCN(Cc2ccc(Nc3ncc4cc(C(F)F)nc(NC5CCC5)c4n3)nc2)CC1 [Compound 1099]			< 10	≥ 100
CC(C)Nc1nc(C(C)O)cc2cnc(Nc3ccc(N4CCNC(C(F)(F)F)C4)nn3)nc12 (single isomer, unassigned) [Compound 990]			< 10	≥ 100
C[C@@H](O)c1cc2cnc(Nc3ccc4c(n3)CCN(CCN(C)C)C4)nc2c(N[C@H]2CCCOC2)n1 [Compound 1140]			< 10	≥ 100
C[C@@H](O)c1cc2cnc(Nc3ccc(N4CCNCC4)nn3)nc2c(N[C@H]2CC[C@H](O)CC2)n1 [Compound 340]	< 10	≥ 100		
CC(C)Nc1nc([C@@H](C)O)cc2cnc(Nc3ccc(CC4CCN(CCO)CC4)cn3)nc12 [Compound 951]			< 10	≥ 100
CO[C@H](C)c1cc2cnc(Nc3ccc(CN4CCN(CCO)CC4)cn3)nc2c(NC(C)(C)CO)n1 [Compound 913]			< 10	≥ 100
CCCNc1nc([C@@H](C)OC)cc2cnc(Nc3ccc4c(n3)CCN(CCN(C)C)C4)nc12 [Compound 1130]			10 to 100	≥ 100
CCCNc1nc([C@@H](C)O)cc2cnc(Nc3ccc4c(n3)CCN(CCO)C4)nc12 [Compound 1123]			10 to 100	≥ 100
CC(C)Nc1nc(C2CCCO2)cc2cnc(Nc3ccc(N4CCNCC4)nn3)nc12 (single isomer, unassigned) [Compound 713]			< 10	≥ 100
CO[C@H](C)c1cc2cnc(Nc3ccc(CN4CCNC[C@H]4C)cn3)nc2c(NC(C)C)n1 [Compound 978]			< 10	≥ 100
CC(C)Nc1nc([C@@H](C)O)cc2cnc(Nc3ccc(N4CCN(CC(=O)O)CC4=O)cn3)nc12 [Compound 833]			< 10	≥ 100
CO[C@H](C)c1cc2cnc(Nc3ccc(N4CCC(O)CC4)nn3)nc2c(NC(C)C)n1 [Compound 201]	10 to 100	≥ 100		
CNC1CCCC1Oc1ccc(Nc2ncc3cc(C(C)O)nc(NC(C)C)c3n2)nc1 (centres unmarked) [Compound 801]			< 10	≥ 100
CO[C@H](C)c1cc2cnc(Nc3ccc(CN4CC5CC(C4)O5)cn3)nc2c(NC(C)C)n1 [Compound 272]	< 10	≥ 100		
CCNc1nc(C(C)O)cc2cnc(Nc3ccc(N4CCNCC4)cn3)nc12 (centres unmarked) [Compound 23]	< 10	≥ 100		
CC(C)Nc1nc([C@@H](C)O)cc2cnc(Nc3ccc(N4CCC(CC(=O)O)CC4)nn3)nc12 [Compound 797]			10 to 100	≥ 100
CO[C@H](C)c1cc2cnc(Nc3ccc(CN4CCn5ccnc5C4)cn3)nc2c(NC(C)C)n1 [Compound 275]	10 to 100	≥ 100		
CO[C@H](C)c1cc2cnc(Nc3ccc(N4CCCC(N)C4=O)cn3)nc2c(NC(C)C)n1 (some centres unmarked) [Compound 591]	< 10	≥ 100		

SMILES	IC50 (CDK4/cyclin D3; [1]) [nM]	IC50 (CDK2/cyclin A2; [2]) [nM]	IC50 (CDK4/cyclin D3; [3]) [nM]	IC50 (CDK2/cyclin A2; [4]) [nM]
CC(C)Nc1nc([C@@H](C)O)c(Cl)c2cnc(Nc3ccc(N4CCNCC4=O)cn3)nc12 [Compound 247]	< 10	≥ 100		
C[C@@H](O)c1cc2cnc(Nc3ccc(N4CCNCC4)nn3)nc2c(NC2(C)CC2)n1 [Compound 1175]			< 10	≥ 100
CCCNc1nc([C@@H](C)OC)cc2cnc(Nc3ccc(CN4C[C@H]5C[C@@H]4CN5)cn3)nc12 [Compound 857]			< 10	≥ 100
CO[C@H](C)c1cc2cnc(Nc3ccc(-c4cccnc4)cn3)nc2c(NC(C)C)n1 [Compound 331]	≥ 100	≥ 100		
CC(C)Nc1nc(C(F)F)cc2cnc(Nc3ccccn3)nc12 [Compound 82]	10 to 100	≥ 100		
CC(C)Nc1nc(C2CCOC2)cc2cnc(Nc3ccc(N4CCNCC4=O)cn3)nc12 (single isomer, unassigned) [Compound 773]			< 10	≥ 100
COC(=O)N1CCN(c2ccc(Nc3ncc4cc([C@@H](C)OC)nc(N[C@H]5CCCOC5)c4n3)nn2)CC1 [Compound 1056]			10 to 100	≥ 100
CC(C)Nc1nc([C@@H](C)O)cc2cnc(Nc3ccc(N4CC5(CC(O)C5)C4)nn3)nc12 [Compound 524]	< 10	≥ 100		
FC(F)c1cc2cnc(Nc3ccc(CN4CCNCC4)cn3)nc2c(N[C@H]2CCCOC2)n1 [Compound 380]	< 10	≥ 100		
CC(C)Nc1nc([C@@H](C)O)cc2cnc(Nc3ccc4c(n3)CCN(CCN3CCCC3=O)C4)nc12 [Compound 955]			< 10	≥ 100
CC(C)Nc1nc(C(F)F)cc2cnc(Nc3ccc(CN4CCN(S(=O)(=O)N(C)C)CC4)cn3)nc12 [Compound 114]	10 to 100	≥ 100		
CO[C@H](C)c1cc2cnc(Nc3ccc(CN4CCN(C(=O)C5CCCO5)CC4)cn3)nc2c(NC(C)C)n1 (some centres unmarked) [Compound 1157]			10 to 100	≥ 100
CC(O)CN1CCN(Cc2ccc(Nc3ncc4cc([C@@H](C)O)nc(NC(C)C)c4n3)nc2)CC1 (some centres unmarked) [Compound 638]			< 10	≥ 100
CCNc1nc(C(F)F)cc2cnc(Nc3ccc(N4CCNCC4)cn3)nc12 [Compound 20]	< 10	≥ 100		
C[C@@H](O)c1cc2cnc(Nc3ccc4c(n3)CCN(CCO)C4)nc2c(N[C@H]2CCCOC2)n1 [Compound 1125]			< 10	≥ 100
CC(C)Nc1nc([C@@H](C)O)cc2cnc(Nc3ccc(N4CCN(CCO)CC4)nn3)nc12 [Compound 510]	< 10	≥ 100		
CNC(=O)CN1CCN(Cc2ccc(Nc3ncc4cc([C@@H](C)O)nc(NC(C)C)c4n3)nc2)CC1 [Compound 1017]			< 10	≥ 100
CO[C@H](C)c1cc2cnc(Nc3ccc(CCO)cn3)nc2c(NC(C)C)n1 [Compound 223]	< 10	≥ 100		
OCCN1CCc2nc(Nc3ncc4cc(C5CCOC5)nc(N[C@H]5CC[C@H](O)CC5)c4n3)ccc2C1 (some centres unmarked) [Compound 1154]			< 10	≥ 100
O=C(O)C1CCN(Cc2ccc(Nc3ncc4cc(C(F)F)nc(NCC5CC5)c4n3)nc2)CC1 [Compound 1100]			10 to 100	≥ 100

SMILES	IC50 (CDK4/cyclin D3; [1]) [nM]	IC50 (CDK2/cyclin A2; [2]) [nM]	IC50 (CDK4/cyclin D3; [3]) [nM]	IC50 (CDK2/cyclin A2; [4]) [nM]
CC(=O)c1cc2cnc(Nc3ccc(N4CCNCCC4=O)cn3)nc2c(NC(C)C)n1 [Compound 1029]			< 10	≥ 100
COC1CCC(Nc2nc([C@@H](C)O)cc3cnc(Nc4ccc(N5CCC(O)CC5)nn4)nc23)CC1 (some centres unmarked) [Compound 590]	< 10	≥ 100		
Cc1nnc(NCc2ccc(Nc3ncc4cc(C(F)F)nc(NC(C)C)c4n3)nc2)[nH]1 [Compound 158]	10 to 100	≥ 100		
CC(C)Nc1nc([C@@H](C)O)cc2cnc(Nc3ccc(C(=O)NCCN(C)C)cn3)nc12 [Compound 1164]			< 10	≥ 100
CCCNc1nc([C@@H](C)O)cc2cnc(Nc3ccc(N4CCNCC4)cn3)nc12 [Compound 921]			< 10	≥ 100
CC(C)Nc1nc([C@@H](C)O)cc2cnc(Nc3ccc(N4CCC5(CC4)CNC(=O)C5)nn3)nc12 [Compound 648]			< 10	≥ 100
CCCNc1nc([C@@H](C)O)cc2cnc(Nc3ccc(N4CCNCC4)c(C)n3)nc12 [Compound 1092]			< 10	≥ 100
C[C@@H](O)c1cc2cnc(Nc3ccc(CN4CCC(O)CC4)cn3)nc2c(NC2CCC2)n1 [Compound 1063]			< 10	≥ 100
COCC(C)(C)Nc1nc([C@@H](C)O)cc2cnc(Nc3ccc(CN4CCC(OC)CC4)cn3)nc12 [Compound 294]	< 10	≥ 100		
CC(C)Nc1nc([C@@H](C)O)cc2cnc(Nc3ccc(N4CCN(C(C)C#N)CC4)nn3)nc12 (some centres unmarked) [Compound 902]			< 10	≥ 100
COCC(C)Nc1nc(C(C)O)cc2cnc(Nc3ccc(N4CCNCC4)cn3)nc12 (centres unmarked) [Compound 28]	< 10	≥ 100		
CCNc1nc([C@@H](C)O)c(Cl)c2cnc(Nc3ccc(CN4CCN(CCO)CC4)cn3)nc12 [Compound 984]			< 10	≥ 100
CC(C)Nc1nc(C(F)F)cc2cnc(Nc3ccc(CCCN4CCCCS4(=O)=O)cn3)nc12 [Compound 170]	< 10	≥ 100		
CO[C@H](C)c1cc2cnc(Nc3ccc(CN4CCC(C(C)(C)O)CC4)cn3)nc2c(NC(C)C)n1 [Compound 200]	< 10	≥ 100		
CCN1CCN(Cc2ccc(Nc3ncc4cc([C@@H](C)O)nc(NC(C)(C)COC)c4n3)nc2)CC1 [Compound 244]	< 10	≥ 100		
COCC(C)(C)Nc1nc([C@@H](C)O)cc2cnc(Nc3ccc(CCO)cn3)nc12 [Compound 228]	10 to 100	≥ 100		
CCCNc1nc([C@@H](C)O)cc2cnc(Nc3ccc(-c4cncn4C)cn3)nc12 [Compound 959]			10 to 100	≥ 100
C[C@@H](O)c1nc(N[C@H]2CC[C@H](O)CC2)c2nc(Nc3ccc(CN4CCNCC4)cn3)ncc2c1Cl [Compound 370]	< 10	≥ 100		
